Earlier results in patent US20060264381A1, “Methods of treating obsessive compulsive disorder” (priority 2005, published 2006).
Blank lines part the entries; values can stand above or below the molecule they belong to.

Tests used:
[1] = molecular target: T1, mGluR5 (Mus musculus, UniProt Q3UVX5); conditions: slices from the Fmr1 KO mouse
T1 construct: from tissue; host or cells: brain slices from Fmr1 knockout mouse (hippocampal area CA3 by context)

[2] = tested on: Drosophila mGluR, DmGluRA; conditions: flies lacking dfmr1 raised with food containing drug
[3] = tested on: cultured cortical neurons; conditions: cultures prepared from Fmr1 knockout (KO) mice lacking FMRP
[4] = tested on: Gp1 mGluR5 on cultured hippocampal neurons
[5] = tested on: synaptosomes prepared from the cortex of Fmr1 KO mice

T1 sequence (Q3UVX5 19-1203): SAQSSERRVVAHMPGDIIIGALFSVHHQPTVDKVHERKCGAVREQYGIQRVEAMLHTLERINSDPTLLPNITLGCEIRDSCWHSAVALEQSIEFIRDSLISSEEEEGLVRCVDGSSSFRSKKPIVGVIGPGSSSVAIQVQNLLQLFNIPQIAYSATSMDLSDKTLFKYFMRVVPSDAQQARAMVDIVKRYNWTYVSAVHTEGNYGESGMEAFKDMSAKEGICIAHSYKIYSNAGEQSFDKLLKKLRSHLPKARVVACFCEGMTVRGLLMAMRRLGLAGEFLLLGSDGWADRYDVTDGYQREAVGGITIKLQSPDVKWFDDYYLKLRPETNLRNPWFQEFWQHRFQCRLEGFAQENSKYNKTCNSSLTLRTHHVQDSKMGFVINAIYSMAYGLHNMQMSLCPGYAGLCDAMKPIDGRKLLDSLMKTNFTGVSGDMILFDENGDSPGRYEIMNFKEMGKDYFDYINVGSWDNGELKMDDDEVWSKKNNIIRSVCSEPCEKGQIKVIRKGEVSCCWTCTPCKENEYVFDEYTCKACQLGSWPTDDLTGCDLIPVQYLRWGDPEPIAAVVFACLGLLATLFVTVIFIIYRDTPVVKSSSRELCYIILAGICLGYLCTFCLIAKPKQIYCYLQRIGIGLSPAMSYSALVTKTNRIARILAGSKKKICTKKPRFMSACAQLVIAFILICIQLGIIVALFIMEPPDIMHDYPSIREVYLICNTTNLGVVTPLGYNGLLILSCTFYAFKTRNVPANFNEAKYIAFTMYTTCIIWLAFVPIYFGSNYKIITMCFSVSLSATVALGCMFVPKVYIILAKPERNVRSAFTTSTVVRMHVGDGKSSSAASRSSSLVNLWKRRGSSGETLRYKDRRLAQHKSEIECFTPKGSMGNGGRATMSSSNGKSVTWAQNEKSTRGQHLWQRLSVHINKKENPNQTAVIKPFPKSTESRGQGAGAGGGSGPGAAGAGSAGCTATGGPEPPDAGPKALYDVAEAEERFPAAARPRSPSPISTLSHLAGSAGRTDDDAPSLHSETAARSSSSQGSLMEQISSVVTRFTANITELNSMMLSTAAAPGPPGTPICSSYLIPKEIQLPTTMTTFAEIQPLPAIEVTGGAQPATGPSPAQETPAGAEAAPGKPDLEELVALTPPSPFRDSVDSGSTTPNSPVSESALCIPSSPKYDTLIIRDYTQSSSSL

ictal-like activity emerging spontaneously in slices [1]: reversed
Structure (SMILES): Cc1cccc(C#Cc2ccccc2)n1 [MPEP, 2-methyl-6-(phenylethynyl)-pyridine]
rescue of phenotypes in mutant flies (altered courtship behavior, decreased memory in conditioned courtship assay, mushroom body structure) [2]: rescued

Structure (SMILES): N[C@@H](C(=O)O)c1cc(O)cc(O)c1 (racemic) [DHPG, (R,S)-3,5-dihydroxyphenylglycine]
PSD-95 levels [3]: fails to increase PSD-95 levels
delivery of FMRP to dendrites ([4]; cultured hippocampal neurons): triggers the delivery of FMRP to dendrites
loss of AMPA receptors from synapses ([4]; cultured hippocampal neurons): stimulates the loss of AMPA receptors from synapses
proportion of long, thin dendritic spines ([4]; prolonged treatment of hippocampal neurons): increased the proportion of long, thin dendritic spines
polyribosome assembly [5]: fails to stimulate polyribosome assembly
